From patent US7714135B2, “Tetrahydropyridothiophenes for the treatment of proliferative diseases such as cancer” (4SC AG, priority 2005, dated 2010)

Legend:
[1] = system: RKO colon adenocarcinoma cells (RKOp27) arrested by the expression of ectopic p27Kip1; assay: Alamar Blue cell viability assay on RKOp27 cells arrested by Ponasterone A-induced p27Kip1 expression (cell cycle specific mode of action); assay type: cell-based; settings: Homo sapiens, RKOp27 subclone induced with 10 μM Ponasterone A, 72 hours incubation, read-out: IC50 RKO p27 induced (arrested)
Protocol: To determine the cell cycle specific mode of action, subclones of RKO colon adenocarcinoma cells (RKOp27 or RKOp21 as described by Schmidt et al. in Oncogene 19, 2423-2429; 2000) are seeded into 96 well flat bottom plates at a density of 16000 cells per well in a volume of 50 μl per well in DMEM growth medium with 10% FCS containing 10 μM Ponasterone A. 24 hours after seeding the 50 μl each of the compound dilutions in DMEM medium are added into each well of the 96 Well plate. Each compound dilution is tested as quadruplicates. Wells containing untreated control cells are filled with 50 μl DMEM medium containing 1% DMSO. The cells are then incubated with the substances for 72 hours at 37° C. in a humidified atmosphere containing 5% carbon dioxide. To determine the viability of the cells, 10 μl of an Alamar Blue solution (Biosource) are added and the fluorescence was measured at an extinction of 544 nm and an emission of 590 nm. For the calculation of the cell viability the emission value from untreated cells is set as 100% viability and the emission rates of treated cells are set in relation to the values of untreated cells. Viabilities are expressed as % values. Viability is compared of proliferating cells grown in the absence of the inducer Ponasterone A, versus viability of cells arrested by the expression of ectopic p27Kip1 induced by Ponasterone A.

[2] = system: RKO (RKOp27) human colon adenocarcinoma cells; assay: Alamar Blue cell viability assay, anti-proliferative/cytotoxic activity on proliferating (uninduced) RKOp27 cells; assay type: cell-based; settings: RKOp27 subclone without inducer, 72 hours incubation, read-out: IC50 RKO p27 uninduced (proliferating)
Protocol: The anti-proliferative/cytotoxic activity of the compounds described herein, can be tested on subclones of RKO (RKOp27) human colon adenocarcinoma cells (Schmidt et al., Oncogene 19, 2423-2429; 2000) using the Alamar Blue cell viability assay (described in O'Brien et al. Eur J Biochem 267, 5421-5426, 2000). The compounds are dissolved as 20 mM solutions in dimethylsulfoxide (DMSO) and subsequently diluted in semi-logarithmic steps. DMSO dilutions are further diluted 1:100 into Dulbecco's modified Eagle's medium (DMEM) containing 10% fetal calf serum to a final concentration twice as much as the final concentration in the test. RKO subclones are seeded into 96 well flat bottom plates at a density of 4000 cells per well in a volume of 50 μl per well. 24 hours after seeding the 50 μl each of the compound dilutions in DMEM medium are added into each well of the 96 Well plate. Each compound dilution is tested as quadruplicates. Wells containing untreated control cells are filled with 50 μl DMEM medium containing 1% DMSO. The cells are then incubated with the substances for 72 hours at 37° C. in a humidified atmosphere containing 5% carbon dioxide. To determine the viability of the cells, 10 μl of an Alamar Blue solution (Biosource) are added and the fluorescence is measured at an extinction of 544 nm and an emission of 590 nm. For the calculation of the cell viability the emission value from untreated cells is set as 100% viability and the emission rates of treated cells are set in relation to the values of untreated cells. Viabilities are expressed as % values.
The corresponding IC50 values of the compounds for anti-proliferative/cytotoxic activity are determined from the concentration-effect curves.
Representative IC50 values for anti-proliferation/cytotoxicity determined in the mentioned assay follow from the following table A, in which the numbers of the compound correspond to the numbers of the examples.

Structure (SMILES)	IC50 [1]	IC50 [2]
CCOC(=O)N1CCc2c(sc(NC(=O)CCc3cccc(C)c3)c2C#N)C1 [Example 18, 3-Cyano-2-(3-m-tolyl-propanoylamino)-4,7-dihydro-5H-thieno[2,3-c]pyridine-6-carboxylic acid ethyl ester]	> 100 µM	≤ 0.3 µM
CCOC(=O)N1CCc2c(sc(NC(=O)CCC3CCCCC3)c2C#N)C1 [Example 19, 3-Cyano-2-(3-cyclohexyl-propanoylamino)-4,7-dihydro-5H-thieno[2,3-c]pyridine-6-carboxylic acid ethyl ester]	> 100 µM	0.3 to 2 µM
CCOC(=O)N1CCc2c(sc(NC(=O)CCn3nccc3C)c2C#N)C1 [Example 20, 3-Cyano-2-[3-(5-methyl-pyrazol-1-yl)-propanoylamino]-4,7-dihydro-5H-thieno[2,3-c]pyridine-6-carboxylic acid ethyl ester]	> 100 µM	0.3 to 2 µM
CCOC(=O)N1CCc2c(sc(NC(=O)CCC3CCCO3)c2C#N)C1 (centres unmarked) [Example 21, 3-Cyano-2-(3-tetrahydro-furan-2-yl-propanoylamino)-4,7-dihydro-5H-thieno[2,3-c]pyridine-6-carboxylic acid ethyl ester]	> 100 µM	≤ 0.3 µM
CC(C)(C)OC(=O)N1CCc2c(sc(NC(=O)CCc3ccccc3)c2C#N)C1 [Example 22, 3-Cyano-2-(3-phenyl-propanoylamino)-4,7-dihydro-5H-thieno[2,3-c]pyridine-6-carboxylic acid tert-butyl ester]	> 100 µM	≤ 0.3 µM
CCOC(=O)N1CCc2c(sc(NC(=O)CCc3ccccc3Br)c2C#N)C1 [Example 23, 2-[3-(2-Bromo-phenyl)-propanoylamino]-3-cyano-4,7-dihydro-5H-thieno[2,3-c]pyridine-6-carboxylic acid ethyl ester]	> 100 µM	≤ 0.3 µM
COCCOC(=O)N1CCc2c(sc(NC(=O)CCc3ccccc3)c2C#N)C1 [Example 24, 3-Cyano-2-(3-phenyl-propanoylamino)-4,7-dihydro-5H-thieno[2,3-c]pyridine-6-carboxylic acid 2-methoxy-ethyl ester]	> 100 µM	≤ 0.3 µM
N#Cc1c(NC(=O)CCc2ccccc2)sc2c1CCN(C(=O)OCCc1ccccn1)C2 [Example 26, 3-Cyano-2-(3-phenyl-propanoylamino)-4,7-dihydro-5H-thieno[2,3-c]pyridine-6-carboxylic acid 2-pyridin-2-yl-ethyl ester]	> 100 µM	≤ 0.3 µM
N#Cc1c(NC(=O)CCc2ccccc2)sc2c1CCN(C(=O)OCc1ccccn1)C2 [Example 27, 3-Cyano-2-(3-phenyl-propanoylamino)-4,7-dihydro-5H-thieno[2,3-c]pyridine-6-carboxylic acid pyridin-2-ylmethyl ester]	> 100 µM	≤ 0.3 µM
N#Cc1c(NC(=O)CCc2ccccc2)sc2c1CCN(C(=O)OCc1cccnc1)C2 [Example 28, 3-Cyano-2-(3-phenyl-propanoylamino)-4,7-dihydro-5H-thieno[2,3-c]pyridine-6-carboxylic acid pyridin-3-ylmethyl ester]	> 100 µM	≤ 0.3 µM
N#Cc1c(NC(=O)CCc2ccccc2)sc2c1CCN(C(=O)OCc1ccncc1)C2 [Example 29, 3-Cyano-2-(3-phenyl-propanoylamino)-4,7-dihydro-5H-thieno[2,3-c]pyridine-6-carboxylic acid pyridin-4-ylmethyl ester]	> 100 µM	≤ 0.3 µM
CC1(C)OCC(COC(=O)N2CCc3c(sc(NC(=O)CCc4ccccc4)c3C#N)C2)O1 (centres unmarked) [Example 30, 3-Cyano-2-(3-phenyl-propanoylamino)-4,7-dihydro-5H-thieno[2,3-c]pyridine-6-carboxylic acid 2,2-dimethyl-[1,3]dioxolan-4-ylmethyl ester]	> 100 µM	≤ 0.3 µM
N#Cc1c(NC(=O)CCc2ccccc2)sc2c1CCN(C(=O)OCC(O)CO)C2 (centres unmarked) [Example 31, 3-Cyano-2-(3-phenyl-propanoylamino)-4,7-dihydro-5H-thieno[2,3-c]pyridine-6-carboxylic acid 2,3-dihydroxy-propyl ester]	> 100 µM	≤ 0.3 µM
CCOC(=O)N1CCc2c(sc(NC(=O)CCc3cccc4c3OCO4)c2C#N)C1 [Example 32, 2-(3-Benzo[1,3]dioxol-4-yl-propanoylamino)-3-cyano-4,7-dihydro-5H-thieno[2,3-c]pyridine-6-carboxylic acid ethyl ester]	> 100 µM	≤ 0.3 µM
CCOC(=O)N1CCc2c(sc(NC(=O)CCc3cccc4c3OC(F)(F)O4)c2C#N)C1 [Example 33, 3-Cyano-2-[3-(2,2-difluoro-benzo[1,3]dioxol-4-yl)-propanoylamino]-4,7-dihydro-5H-thieno[2,3-c]pyridine-6-carboxylic acid ethyl ester]	> 100 µM	0.3 to 2 µM
CCOC(=O)N1CCc2c(sc(NC(=O)CCc3cccc4c3OCCO4)c2C#N)C1 [Example 34, 3-Cyano-2-(3-2,3-dihydro-benzo[1,4]dioxin-5-yl-propanoylamino)-4,7-dihydro-5H-thieno[2,3-c]pyridine-6-carboxylic acid ethyl ester]	> 100 µM	0.3 to 2 µM

Continued, in another order:

IC50 [1]	Structure (SMILES)	IC50 [2]
> 100 µM	CCOC(=O)N1CCc2c(sc(NC(=O)CCc3ccccc3F)c2C#N)C1 [Example 10, 3-Cyano-2-(3-(2-fluoro-phenyl)-propanoylamino)-4,7-dihydro-5H-thieno[2,3-c]pyridine-6-carboxylic acid ethyl ester]	≤ 0.3 µM
> 100 µM	CCOC(=O)N1CCc2c(sc(NC(=O)CCc3cc(C)c(C)o3)c2C#N)C1 [Example 11, 3-Cyano-2-[3-(4,5-dimethyl-furan-2-yl)-propanoylamino]-4,7-dihydro-5H-thieno[2,3-c]pyridine-6-carboxylic acid ethyl ester]	≤ 0.3 µM
> 100 µM	CCOC(=O)N1CCc2c(sc(NC(=O)CCc3cccc(F)c3)c2C#N)C1 [Example 12, 3-Cyano-2-[3-(3-fluoro-phenyl)-propanoylamino]-4,7-dihydro-5H-thieno[2,3-c]pyridine-6-carboxylic acid ethyl ester]	≤ 0.3 µM
> 100 µM	CCOC(=O)N1CCc2c(sc(NC(=O)CCc3ccccc3Cl)c2C#N)C1 [Example 13, 2-[3-(2-Chloro-phenyl)-propanoylamino]-3-cyano-4,7-dihydro-5H-thieno[2,3-c]pyridine-6-carboxylic acid ethyl ester]	≤ 0.3 µM
> 100 µM	CCOC(=O)N1CCc2c(sc(NC(=O)CCc3ccc(C)cc3)c2C#N)C1 [Example 14, 3-Cyano-2-(3-p-tolyl-propanoylamino)-4,7-dihydro-5H-thieno[2,3-c]pyridine-6-carboxylic acid ethyl ester]	≤ 0.3 µM
> 100 µM	CC(C)(C)OC(=O)N1CCc2c(sc(NC(=O)CCc3cccnc3)c2C#N)C1 [Example 15, 3-Cyano-2-(3-pyridin-3-yl-propanoylamino)-4,7-dihydro-5H-thieno[2,3-c]pyridine-6-carboxylic acid tert-butyl ester]	≤ 0.3 µM
> 100 µM	CCOC(=O)N1CCc2c(sc(NC(=O)CCc3cccc(Cl)c3)c2C#N)C1 [Example 16, 2-[3-(3-Chloro-phenyl)-propanoylamino]-3-cyano-4,7-dihydro-5H-thieno[2,3-c]pyridine-6-carboxylic acid ethyl ester]	≤ 0.3 µM
> 100 µM	CCOC(=O)N1CCc2c(sc(NC(=O)CCc3ccc(Cl)cc3)c2C#N)C1 [Example 17, 2-[3-(4-Chloro-phenyl)-propanoylamino]-3-cyano-4,7-dihydro-5H-thieno[2,3-c]pyridine-6-carboxylic acid ethyl ester]	≤ 0.3 µM
≥ 40 µM	CCOC(=O)N1CCc2c(sc(NC(=O)CCc3cncnc3)c2C#N)C1 [Example 35, 3-Cyano-2-(3-pyrimidin-5-yl-propanoylamino)-4,7-dihydro-5H-thieno[2,3-c]pyridine-6-carboxylic acid ethyl ester]	0.3 to 2 µM
